The results in this text go back to patent US10294260B2, “Tetracyclic anthraquinone derivatives” (TIANJIN HEMAY ONCOLOGY PHARMACEUTICAL CO., LTD., priority 2012, dated 2019).

The subject of data set [1] is mice of ICR strain. The data set is described as follows: Assay on MTD (maximum tolerated dose) in vivo of mice. As to conditions: for Number of Dead Animals ♂/♀ / Number of animals that died immediately after the injection (a) ♂/♀: male/female; for Number of animals that died immediately after the injection (a) ♂/♀: not counted in mortality rate. On the procedure:
Assay on MTD (Maximum Tolerated Dose) In Vivo of Mice
Assay on Maximum Tolerated Dose of Compound
Assay animals: mice of ICR strain with a weight of 18-22 g, purchased from Beijing Vital River Laboratories Limited, License SCXK (jing) 2007-0001.
Administration Regimen: each experimental animal was administered with corresponding dosage of tested substance once by injection of caudal vain every three days. Each dosage was initially designed as 5 times of administration. The specific time of administration depended on the conditions of the animals. It should be carefully observed the behavior conditions of the animals within 2 hours after administration. The animal's behavior was observed every 4 hours in the day of administration. The survival conditions and weight of animals were recorded every day and observed for whether abnormality occurred on the body surface thereof. The experimental animals were sacrificed on 14 day after administration and dissected for observation.
I group: (20 mg/kg) group;
II group: (25 mg/kg) group;
III group: (30 mg/kg) group;
IV group: solvent control group;
There were four groups in total. Each group consisted of five male mice and five female mice.
I group: (40 mg/kg) group;
II group: (45 mg/kg) group;
III group: (50 mg/kg) group;
V group: (60 mg/kg) group;
There were five groups in total. Each group consisted of six male mice and six female mice.

Data set [2] is described as follows: Storage stability detected by HPLC. The data set is classed as physicochemical. As to conditions: sealed and stored for 9 months under refrigeration conditions.

Molecules are shown by their SMILES.

Regarding `COc1cccc2c1C(=O)c1c(O)c3c(c(O)c1C2=O)CC(O)(C(=O)COC(=O)CCC(=O)O)CC3OC1CC(n2cccc2)C(O)C(C)O1` (centres unmarked) [Compound A, 3′-pyrrolyldoxorubicin-14-oxo-succinic acid monoester], the “Number of Dead Animals ♂/♀” value in data set [1] (30 mg/kg, 5 administrations) is listed as 0/1; in data set [1] (40 mg/kg, 5 administrations), 3/2; in data set [1] (50 mg/kg, 5 administrations), 5/5; in data set [1] (60 mg/kg, 5 administrations), 5/5. Besides, the “Mortality Rate (%)” value came out at 10% in data set [1] (30 mg/kg, 5 administrations, total dosage 150 mg/kg); 50% in data set [1] (40 mg/kg, 5 administrations, total dosage 200 mg/kg); 100% in data set [1] (50 mg/kg, 5 administrations, total dosage 250 mg/kg); 100% in data set [1] (60 mg/kg, 5 administrations, total dosage 300 mg/kg).

With `COc1cccc2c1C(=O)c1c(O)c3c(c(O)c1C2=O)CC(O)(C(=O)COC(=O)CCC(=O)NCCN1CCOCC1)CC3O[C@H]1C[C@H](n2cccc2)[C@H](O)[C@H](C)O1.O=P(O)(O)O` (stereo partly drawn) [Example 96, 10-((3′-(Pyrrol-1-yl)-2′,3′,6′-Trideoxy-Alpha-L-Lyxo-Hexylpyranyl)Oxy)-7,8,9,10-Tetrahydro-6,8,11-Trihydroxy-13-Oxo-14-(4-((2-(Morpholin-1-yl)Ethyl)Amino)-4-Oxo-Butyrato)-1-Methoxy-5,12-Naphthalenedione Phosphate], the “Number of Dead Animals ♂/♀” value is listed as 0/1 in data set [1] (40 mg/kg, 5 administrations); 0/0 in data set [1] (45 mg/kg, 5 administrations); 0/0 in data set [1] (50 mg/kg, 5 administrations); 5/4 in data set [1] (55 mg/kg, 5 administrations); 3/4 in data set [1] (60 mg/kg, 5 administrations). For the same molecule, the “Number of animals that died immediately after the injection (a) ♂/♀” value in data set [1] (45 mg/kg, 5 administrations) is on record as 1/2; in data set [1] (50 mg/kg, 5 administrations) it was 1/1; in data set [1] (55 mg/kg, 5 administrations) it was 5/3. The “stability (degraded product by HPLC)” value in data set [2] was “No obvious degraded product was observed”.

For `COc1cccc2c1C(=O)c1c(O)c3c(c(O)c1C2=O)C[C@@](O)(C(=O)CO)C[C@@H]3O[C@H]1C[C@H](n2cccc2)[C@H](O)[C@H](C)O1` [3′-Pyrrolyldoxorubicin], the “Number of Dead Animals ♂/♀” value in data set [1] (20 mg/kg, 4 administrations) was 5/5; in data set [1] (25 mg/kg, 4 administrations), 5/5; in data set [1] (30 mg/kg, 3 administrations), 5/5. Also, the “Mortality Rate (%)” value in data set [1] (20 mg/kg, 4 administrations, total dosage 80 mg/kg) was found to be 100%; in data set [1] (25 mg/kg, 4 administrations, total dosage 100 mg/kg), 100%; in data set [1] (30 mg/kg, 3 administrations, total dosage 90 mg/kg), 100%.
